From PubChem BioAssay AID588524 (Sanford-Burnham Center for Chemical Genomics, 2011)
pIC50: −log10 of the molar value.

Biological target: Apoptotic protease-activating factor 1 (Homo sapiens) (UniProt O14727)
Assay: Apaf-1 assay inhibition concentration curves – fluorescence, uHTS hits, dose response (AID 588524)
Settings: Apaf-1 apoptosome assay, fluorescence read-out

Apoptotic protease-activating factor 1 (Homo sapiens), sequence (O14727 whole entry, looked up): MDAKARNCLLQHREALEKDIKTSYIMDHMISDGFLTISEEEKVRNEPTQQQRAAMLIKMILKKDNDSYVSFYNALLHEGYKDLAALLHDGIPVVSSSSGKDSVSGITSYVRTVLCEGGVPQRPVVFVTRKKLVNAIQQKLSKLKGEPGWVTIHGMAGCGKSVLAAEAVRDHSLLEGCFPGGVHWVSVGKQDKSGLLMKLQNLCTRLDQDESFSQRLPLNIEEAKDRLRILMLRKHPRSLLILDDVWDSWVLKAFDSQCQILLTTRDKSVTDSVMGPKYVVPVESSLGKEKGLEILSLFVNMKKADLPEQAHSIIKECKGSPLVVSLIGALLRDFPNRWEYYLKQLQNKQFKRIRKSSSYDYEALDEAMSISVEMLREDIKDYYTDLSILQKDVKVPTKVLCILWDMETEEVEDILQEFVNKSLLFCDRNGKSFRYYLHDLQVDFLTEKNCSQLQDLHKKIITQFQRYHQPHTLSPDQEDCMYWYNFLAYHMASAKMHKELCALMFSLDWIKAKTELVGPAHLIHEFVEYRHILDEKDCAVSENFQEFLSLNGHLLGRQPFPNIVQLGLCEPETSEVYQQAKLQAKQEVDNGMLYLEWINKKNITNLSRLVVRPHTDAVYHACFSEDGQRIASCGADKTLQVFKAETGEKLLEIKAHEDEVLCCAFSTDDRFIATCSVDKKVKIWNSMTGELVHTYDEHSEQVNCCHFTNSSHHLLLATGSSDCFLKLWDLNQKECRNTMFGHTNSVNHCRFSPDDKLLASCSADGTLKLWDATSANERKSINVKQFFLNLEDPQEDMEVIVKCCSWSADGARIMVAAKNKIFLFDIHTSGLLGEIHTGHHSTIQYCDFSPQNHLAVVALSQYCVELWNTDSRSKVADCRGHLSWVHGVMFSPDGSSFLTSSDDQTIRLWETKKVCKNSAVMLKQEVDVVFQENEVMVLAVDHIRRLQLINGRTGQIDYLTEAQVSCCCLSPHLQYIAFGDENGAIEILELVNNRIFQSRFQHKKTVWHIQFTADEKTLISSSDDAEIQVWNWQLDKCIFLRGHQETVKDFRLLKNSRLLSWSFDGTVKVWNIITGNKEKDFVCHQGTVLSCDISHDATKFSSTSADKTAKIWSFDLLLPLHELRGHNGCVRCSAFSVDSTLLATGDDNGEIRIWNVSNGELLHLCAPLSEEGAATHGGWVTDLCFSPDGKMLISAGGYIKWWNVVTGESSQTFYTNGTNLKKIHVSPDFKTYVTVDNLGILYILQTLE

C#CCOCCOCCOCCNc1nc(N2CCN(C(=O)CCCCCCCCCCNC(=O)[C@H](CCCCN)n3cc(CCO)nn3)CC2)nc(N2CCN(C(=O)CCCCCCCCCCNC(=O)[C@H](CCCCN)n3cc(CCO)nn3)CC2)n1
pIC50: 4.57

CNc1ccc2nc3ccccc3[n+](C)c2c1
pIC50: 4.94

C#CCOCCOCCOCCNc1nc(N2CCN(C(=O)CCCCCCCCCCNC(=O)[C@@H](CCSC)n3cc(CCO)nn3)CC2)nc(N2CCN(C(=O)CCCCCCCCCCNC(=O)[C@H](CO)n3cc(CCCCCN)nn3)CC2)n1
pIC50: 4.40

C#CCOCCOCCOCCNc1nc(N2CCN(C(=O)CCCCCCCCCCNC(=O)Cn3cc(CCCCCN)nn3)CC2)nc(N2CCN(C(=O)CCCCCCCCCCNC(=O)Cn3cc(CCCCCN)nn3)CC2)n1
pIC50: 4.46

C#CCOCCOCCOCCNc1nc(N2CCN(C(=O)CCCCCCCCCCNC(=O)[C@H]([C@@H](C)CC)n3cc(CCCCN=C(N)N)nn3)CC2)nc(N2CCN(C(=O)CCCCCCCCCCNC(=O)[C@H](CCCCN)n3cc(C)nn3)CC2)n1
pIC50: 4.67

C#CCOCCOCCOCCNc1nc(N2CCN(C(=O)CCCCCCCCCCNC(=O)Cn3cc(CCCCCN)nn3)CC2)nc(N2CCN(C(=O)CCCCCCCCCCNC(=O)[C@H]([C@@H](C)CC)n3cc(CCCCN=C(N)N)nn3)CC2)n1
pIC50: 4.89

C#CCOCCOCCOCCNc1nc(N2CCN(C(=O)CCCCCCCCCCNC(=O)Cn3cc(CCCCCN)nn3)CC2)nc(N2CCN(C(=O)CCCCCCCCCCNC(=O)[C@H]([C@@H](C)CC)n3cc(CCCCCN)nn3)CC2)n1
pIC50: 4.61

CCCCCCCCCCCCCCCC[n+]1ccc(/C=N/O)cc1
pIC50: 4.53

C#CCOCCOCCOCCNc1nc(N2CCN(C(=O)CCCCCCCCCCNC(=O)[C@H](CCCCN)n3cc(C)nn3)CC2)nc(N2CCN(C(=O)CCCCCCCCCCNC(=O)[C@H](CCCN=C(N)N)n3cc(C[C@@H](C)CC)nn3)CC2)n1
pIC50: 4.82

C#CCOCCOCCOCCNc1nc(N2CCN(C(=O)CCCCCCCCCCNC(=O)Cn3cc(CCCCCN)nn3)CC2)nc(N2CCN(C(=O)CCCCCCCCCCNC(=O)[C@H](CO)n3cc(CCCSC)nn3)CC2)n1
pIC50: 4.61

C[n+]1c(-c2ccccc2)c2cc(N)ccc2c2ccc(N)cc21
pIC50: 4.61

C#CCOCCOCCOCCNc1nc(N2CCN(C(=O)CCCCCCCCCCNC(=O)[C@H](CO)n3cc(CCCSC)nn3)CC2)nc(N2CCN(C(=O)CCCCCCCCCCNC(=O)[C@H](CCCCN)n3cc(CCO)nn3)CC2)n1
pIC50: 4.44
